Experimental data published in patent publication US5880122A, “3-Carboxamide derivatives of 5H-pyrrolo[2,1-c][1,4]-benzodiazepines” (American Home Products Corporation, priority 1997, dated 1999).
pIC50: −log10 of the molar value. Where a name gives a salt, the structure may show the parent alone.

Target: T1, Human V2 Vasopressin Receptor (Homo sapiens, UniProt P30518)
T1 construct: expressed in transfected cells; host or cells: mouse fibroblast cell line LV-2
Experiment: Binding to membranes of mouse fibroblast cell line (LV-2) transfected with the cDNA expressing the human V2 vasopressin receptor
Conditions: LV-2 cell membranes, [3H] Arginine8 vasopressin 0.8 nM, 120 min
Protocol: Flasks of 175 ml capacity, containing attached cells grown to confluence, are cleared of culture medium by aspiration. The flasks containing the attached cells are rinsed with 2×5 ml of phosphate buffered saline (PBS) and the liquid aspirated off each time. Finally, 5 ml of an enzyme free dissociation Hank's based solution (Specialty Media, Inc., Lafayette, N.J.) is added and the flasks are left undisturbed for 2 min. The content of all flasks is poured into a centrifuge tube and the cells pelleted at 300×g for 15 min. […] The homogenate is centrifuged at 1500×g for 10 min to remove ghost membranes. […] Upon completion, the pellet is resuspended in a small volume of 50.0 mM Tris.HCl buffer, pH 7.4. The protein content is determined by the Lowry method and the receptor membranes are suspended in 50.0 mM Tris.HCl buffer containing 0.1 mM phenylmethylsulfonylfluoride (PMSF) and 0.2% bovine serum albumin (BSA) to give 2.5 mg receptor protein per ml of suspension.
Arginine^8, vasopressin (S.A. 75.0 Ci/mmole) at 0.8 nM and the reaction initiated by the addition of 80.0 ml of tissue membranes (200.0 mg tissue protein). […] Non specific binding is assessed in the presence of 1.0 mM of unlabeled ligand, added in 20 ml volume. […] The data are analyzed for IC50 values by the LUNDON-2 program for competition (LUNDON SOFTWARE, Ohio).

T1 sequence (P30518 whole entry): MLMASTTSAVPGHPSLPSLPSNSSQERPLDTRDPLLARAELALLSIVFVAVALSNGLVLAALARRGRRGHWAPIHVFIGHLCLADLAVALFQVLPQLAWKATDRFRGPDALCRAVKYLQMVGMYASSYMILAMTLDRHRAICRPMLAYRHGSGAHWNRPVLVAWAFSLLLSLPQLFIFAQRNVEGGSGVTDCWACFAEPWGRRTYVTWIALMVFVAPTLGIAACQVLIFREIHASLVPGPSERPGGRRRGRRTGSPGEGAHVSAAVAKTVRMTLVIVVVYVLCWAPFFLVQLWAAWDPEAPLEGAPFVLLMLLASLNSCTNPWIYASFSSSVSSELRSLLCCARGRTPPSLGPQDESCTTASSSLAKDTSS

| SMILES | pIC50 |
| --- | --- |
| O=C(Nc1cc(C(=O)N2Cc3ccc(C(=O)C(Cl)(Cl)Cl)n3Cc3ccccc32)ccc1Cl)c1ccccc1-c1ccccc1 [Example 6, N-[5-[3-trichloromethylcarbnyl]-[5H-pyrrolo-[2,1-c]-[1,4]-benzdiazalin-10(11H)-ylcarbonyl]-2-chloronhenyl]-2-henylbenzamide] | 8.25 |
| Cc1ccc(F)cc1C(=O)Nc1ccc(C(=O)N2Cc3ccc(C(=O)[N-][N+](C)(C)C)n3Cc3ccccc32)c(Cl)c1 [Example 5, 2-[[10-[2-Chloro-4-[(5-fluoro-2-methylbenzoyl)amino]benzoyl]-10,11-dihydro-5H-pyrrolo[2,1-c][1,4]benzodiazepin-3-yl]hydroxymethylenel-1.1,1-trimetpyIpydraziniuminner salt] | 7.22 |

System: Endogenous Arginine Vasopressin Antidiuretic (V2) Response
Experiment: Antagonism of endogenous arginine vasopressin antidiuretic (V2) response in conscious rats (urine volume)
Type: in vivo, Sprague-Dawley rats
Conditions: oral 10 mg/kg dose, urine collected for 4 hours, no water during test
Protocol: On the day of test, rats were placed individually into metabolic cages equipped with stainless steel screens (to separate the feces from the urine) and funnels for collection of urine. Vehicle or reference agent was given at various oral doses. During the test, rats were not provided with water or food. Urine was collected for four hours after dosing of the test compound. At the end of four hours, urine volume was measured. […] Determinations of Na^+, K^+ and Cl^- ion were carried out using ion specific electrodes in a Beckman SYNCHRON EL-ISE Electrolyte System analyzer.

| SMILES | Urine Volume (ml/4 hrs) 10 mg/kg rat p.o. |
| --- | --- |
| Cc1ccc(F)cc1C(=O)Nc1ccc(C(=O)N2Cc3ccc(C(=O)N[N+](C)(C)C)n3Cc3ccccc32)c(Cl)c1 [Example 4] | 9.2 ml/4 hrs |
| CN(C)C1CCN(C(=O)c2ccc3n2Cc2ccccc2N(C(=O)c2ccc(NC(=O)c4ccccc4-c4ccccc4)cc2Cl)C3)CC1 [Example 12, Biphenyl-2-carboxylic acid {3-chloro-4-[3-(4-dimethylamino-piperidine-1-carbonyl)-5H,11H-1pyrrolo[2,1-c][1,4]benzodiazeline-10-carbonyl]-phenyl}-amide.] | 21.4 ml/4 hrs |
| O=C(Nc1ccc(C(=O)N2Cc3ccc(C(=O)O)n3Cc3ccccc32)c(Cl)c1)c1ccccc1-c1ccccc1 [Example 7] | 19.2 ml/4 hrs |
| CN1CCN(C(=O)c2ccc3n2Cc2ccccc2N(C(=O)c2ccc(NC(=O)c4ccccc4-c4ccccc4)cc2Cl)C3)CC1 [Example 9] | 23.7 ml/4 hrs |
| O=C(O)CNC(=O)c1ccc2n1Cc1ccccc1N(C(=O)c1ccc(NC(=O)c3ccccc3-c3ccccc3)cc1Cl)C2 [Example 18] | 7.8 ml/4 hrs |
| Cc1ccc(F)cc1C(=O)Nc1ccc(C(=O)N2Cc3ccc(C(=O)[N-][N+](C)(C)C)n3Cc3ccccc32)c(Cl)c1 [Example 5, 2-[[10-[2-Chloro-4-[(5-fluoro-2-methylbenzoyl)amino]benzoyl]-10,11-dihydro-5H-pyrrolo[2,1-c][1,4]benzodiazepin-3-yl]hydroxymethylenel-1.1,1-trimetpyIpydraziniuminner salt] | 9.1 ml/4 hrs |
| COc1cc(NC(=O)c2ccccc2-c2ccccc2)ccc1C(=O)N1Cc2ccc(C(=O)N3CCN(C)CC3)n2Cc2ccccc21 [Example 16] | 24.3 ml/4 hrs |
| O=C(Nc1ccc(C(=O)N2Cc3ccc(C(=O)N4CCC(N5CCOCC5)CC4)n3Cc3ccccc32)c(Cl)c1)c1ccccc1-c1ccccc1 [Example 15, Biphenyl-2-carboxylic acid{3-chloro-4-[3-(4-morpholino-1piperidine-1-carbonyl)-5H,11H-pyrrolo[2,1-c][1,4]benzodiazepine-10-carbonyl]-phenyl}-amide.] | 19.3 ml/4 hrs |
| CN1CCN(NC(=O)c2ccc3n2Cc2ccccc2N(C(=O)c2ccc(NC(=O)c4ccccc4-c4ccccc4)cc2Cl)C3)CC1 [Example 13, Bilphenyl-2-carboxylic acid{3-chloro-4-[3-(4-methyl-piperazine-1 aminocarbonyl)-5H,11H-pyrrolo[2,1-c][1,4]benzodiazepine-10-carbonyl]-phenyl}-amide.] | 16.8 ml/4 hrs |
| CN(C)NC(=O)c1ccc2n1Cc1ccccc1N(C(=O)c1ccc(NC(=O)c3ccccc3-c3ccccc3)cc1Cl)C2 [Example 8] | 40.9 ml/4 hrs |
| O=C(Nc1ccc(C(=O)N2Cc3ccc(C(=O)N4CCC(N5CCCCC5)CC4)n3Cc3ccccc32)c(Cl)c1)c1ccccc1-c1ccccc1 [Example 11, Biphenyl-2-carboxylic acid{3-chloro-4-[3-(4-piperidinyl-pilperidine-1-carbonyl)-5H,11H-pyrrolo[2,1-c][1,4]benzodiazepine-10-carbonyl]-phenyl}-amide.] | 20.5 ml/4 hrs |
| COc1cc(NC(=O)c2ccccc2-c2ccccc2)ccc1C(=O)N1Cc2ccc(C(=O)NN(C)C)n2Cc2ccccc21 [Example 17] | 9.4 ml/4 hrs |
